This is an account of results in article PMC5840262, “Design, Synthesis and Evaluation of Branched RRWQWR-Based Peptides as Antibacterial Agents Against Clinically Relevant Gram-Positive and Gram-Negative Pathogens” (Frontiers in Microbiology, 2018).

Data set [1] has as its system human erythrocytes. Kind of data set: Hemolytic activity. The data set is classed as cell-based. The protocol: Human erythrocytes collected from the blood samples of healthy humans were harvested by centrifugation for 7 min at 162 × g and washed three times in phosphate-buffered saline (PBS). The erythrocytes (2% hematocrit in PBS) were incubated with peptide molecules at several concentrations (6.25, 12.5, 25, 50, and 100 μM) for 2 h at 37°C. PBS was used as negative control for hemolysis, and sterile distilled water was used as positive control (100% hemolysis). The plate was subsequently centrifuged at 1,459 × g for 10 min at 4°C. Aliquots of the supernatant from each well (75 μL) were carefully transferred to a new sterile 96-well plate, and hemolytic activity was evaluated by measuring the OD492 using an Asys Expert Plus Microplate reader. The experiments were performed in duplicate, and hemolytic activity was calculated for each peptide.

Data set [2] deals with clinical isolates of Gram-negative bacteria (Klebsiella pneumoniae, Pseudomonas aeruginosa). Kind of data set: Therapeutic index, Gram-negative clinical isolates. The source says:
(§1) We determined the therapeutic index of each peptide, which we defined as the ratio of Maximum Hemolytic Activity (Hmax) to MIC50 (Hmax/MIC50).
(§2) The results are shown in Table 7 (Gram-positive) and Table 8 (Gram-negative). Regarding the Gram-positive bacteria, the palindromic, dimeric and tetrameric peptides were active chiefly against S. aureus. This trend was consistent with results of the experiments on the ATCC strains, in which these peptides were only active against the sensitive strain of the […] bacteria.

Data set [3] concerns Klebsiella pneumoniae clinical isolate 49,644. The data set is classed as cell-based. As to the method: (§3) For the clinical isolates, we used 20 different isolates from the Public Health Reference Laboratory collection of the Secretaría de Salud del Distrito (SdSD; Bogotá, Colombia). The samples were collected from June to December 2016. For each isolate, the patient parameters (age, gender and location) and the culture site were recorded for epidemiologic monitoring (Table 1). All isolates had been previously tested for antibiotic sensitivity at the Public Health Microbiology Laboratory using either the Phoenix™ system (Gram-positive) or the VITEK 2 system (Gram-negative).
(§4) We screened all five peptides against the ATCC reference strains and the clinical isolates according to Method M7-A7 of the National Committee for Clinical Laboratory Standards (CLSI, [2007]). The MIC50 and MBC values were determined using a broth microdilution and growth inhibition method previously reported by Leon-Calvijo et al. ([2015]), with some modifications (Wiegand et al., [2008]). Briefly, the MIC50 experiments comprised a liquid-inhibition growth assay in a sterile, untreated, 96-well flat-bottom tissue culture plate. The bacteria were cultured overnight n Mueller Hinton agar; three colonies were transferred to 8 mL of Mueller Hilton broth and incubated at 37°C until the mid-exponential phase of growth. The turbidity of the cultures was measured and adjusted spectrophotometrically to a McFarland standard of 0.5, and then diluted to a final concentration of 5 × 10^7 colony forming units (CFU) per well. Stock solutions (2,000 μM) of each test peptide were serially diluted to final concentrations (per well) of 200, 100, 50, 25, 12.5, and 6.25 μM. Each concentration was evaluated in duplicate and each assay was performed in triplicate.
(§5) Wells containing Mueller Hilton broth with bacterial inoculum only served as bacterial-growth controls. Additional controls included Mueller Hilton broth alone (as blank) and Mueller Hilton broth with ciprofloxacin (2 μg/mL; as positive control). The microplate was incubated for 24 h at 37°C, and growth inhibition was measured by monitoring the optical density at 620 nm (OD620). The MIC50 was defined as the peptide concentration at which bacterial growth was inhibited by 50%.
(§6) To determine the MBC, an aliquot from each well of the MIC50 assay was spread onto Mueller Hilton agar. After 18 h at 37°C, the concentration that inhibited bacterial growth was determined. Each of these tests was performed four times. MBC was defined as the lowest concentration of peptide at which the number of bacteria was reduced by 99.9% in vitro (European Committee for Antimicrobial Susceptibility Testing, [2000]).

Data set [4] relates to Enterococcus faecium clinical isolate 1,225. The data set is classed as cell-based. The protocol:
as §3, §4, §5, §6

Data set [5] relates to Enterococcus faecium clinical isolate 1,040. The data set is classed as cell-based. The protocol:
as §3, §4, §5, §6

For data set [6], the system named is clinical isolates of Gram-positive bacteria (Enteroccocus faecium, Staphylococcus aureus). The data set can be described thus: Therapeutic index, Gram-positive clinical isolates.
Text: as §1, §2

The subject of data set [7] is Pseudomonas aeruginosa ATCC 27853 (resistant). The data set is classed as cell-based. The protocol:
as §4, §5, §6

For data set [8], the system named is Enterococcus faecalis ATCC 29212 (sensitive). The data set is classed as cell-based. As to the method: as §4, §5, §6
The test system of data set [9] is Pseudomonas aeruginosa ATCC 10145 (sensitive). The data set is classed as cell-based. The protocol:
as §4, §5, §6

Data set [10] concerns Enterococcus faecalis ATCC 51575 (resistant). The data set is classed as cell-based. The protocol:
as §4, §5, §6

The subject of data set [11] is Gram-negative ATCC strains (K. pneumoniae 13883 and 700603, P. aeruginosa 10145 and 27853).
Text: as §1
The therapeutic index (TI) is a ratio of the toxic dose of a substance to its therapeutically-active dose and can be calculated different ways (e.g., LD50/ED50). Here, we calculated a TI value for each peptide against all the Gram-positive or the Gram-negative ATCC strains, by dividing its Hmax by its MIC50 for the given group of strains. […] Additionally, to make our quantitative analysis more robust [geometric mean (Khachatryan et al., [2017]) and fold values], we have included MIC50 values for these peptides against S. aureus and K. pneumoniae that we previously obtained using the same assay, the M7-A7 method of the National Committee for Clinical Laboratory Standards (Leon-Calvijo et al., [2015]).

Where [12] appears, read: E. faecium isolate 1,225, broth microdilution, 24 h 37°C, OD620, 50% growth inhibition.
The mark [13] stands for this setting: E. faecium isolate 1,225, plated on agar 18 h 37°C, 99.9% reduction.
The mark [14] stands for this setting: E. faecium isolate 1,040, broth microdilution, 24 h 37°C, OD620, 50% growth inhibition.
The mark [15] stands for this setting: E. faecium isolate 1,040, plated on agar 18 h 37°C, 99.9% reduction.
[16] abbreviates: P. aeruginosa ATCC 27853 resistant, broth microdilution, 24 h 37°C, OD620, 50% growth inhibition.
The mark [17] stands for this setting: P. aeruginosa ATCC 27853 resistant, plated on Mueller Hinton agar, 18 h 37°C, 99.9% reduction.
Setting [18] is: E. faecalis ATCC 29212 sensitive, aliquots of MIC50 wells on Mueller Hinton agar, 18 h 37°C, 99.9% reduction.
Setting [19] is: E. faecalis ATCC 29212 sensitive, broth microdilution, Mueller Hinton broth, 24 h 37°C, OD620, concentration inhibiting growth by 50%.
[20] abbreviates: P. aeruginosa ATCC 10145 sensitive, broth microdilution, 24 h 37°C, OD620, 50% growth inhibition.
Setting [21] is: P. aeruginosa ATCC 10145 sensitive, plated on Mueller Hinton agar, 18 h 37°C, 99.9% reduction.
Where [22] appears, read: E. faecalis ATCC 51575 resistant, broth microdilution, 24 h 37°C, OD620, 50% growth inhibition.
The mark [23] stands for this setting: E. faecalis ATCC 51575 resistant, plated on Mueller Hinton agar, 18 h 37°C, 99.9% reduction.

A word on the MBC: it is the smallest concentration meeting the test's criterion for killing. Read a low MBC as greater bactericidal potency. Usually MIC50 stands for an inhibitory concentration at the 50% level, which refers to growth in some studies and to a panel of isolates in others.

Values joined by “and” are separate entries in the source; they are usually repeats but may differ in a detail not shown here. Equal values may be shown once. Read-outs that look alike come from different tables or passages of the source. Ends that are not written are not given here. Some results are limits rather than exact numbers.

Turning to RWQWRWQWR [PLS], the “H50, concentration of peptide leading to 50% hemolysis” value in data set [1] (red cells of human, 2 h) is >100 µM. For the same substance, the figures for the Gm, geometric mean of MIC50 values in data set [2], in data set [6] and in data set [11] were 17.4 µM, 13.7 and 54.1, respectively. The MBC was 100.0 µM in data set [3] (clinical isolate 49,644, 18 h); 100.0 µM in data set [4] (clinical isolate 1,225, 18 h); >100 µM in data set [5] (clinical isolate 1,040, 18 h); >200.0 µM in data set [7] (ATCC 27853, 18 h); 100.0 µM in data set [8] (ATCC 29212, 18 h); >200.0 µM in [9] (ATCC 10145, 18 h). For the same substance, the MBC in data set [10] (ATCC 51575, 18 h) was >200.0 µM. The MIC50 was 12.5 µM in data set [3] (clinical isolate 49,644, 24 h); >100 µM in [4] (clinical isolate 1,225, 24 h); >100 µM in [5] (clinical isolate 1,040, 24 h); 107.2 µM in [7] (ATCC 27853, 24 h); 25.6 µM in data set [8] (ATCC 29212, 24 h); 99.7 µM in [9] (ATCC 10145, 24 h). For the same substance, the MIC50 in data set [10] (ATCC 51575, 24 h) is >200.0 µM.

With “(RRWQWR)4K2Ahx2C2 (disulfide) [LfcinB (20–25)4, branched tetrameric peptide (RRWQWR)4K2Ahx2C2, two dimers linked by a cysteine disulfide bridge]”, the “Hmax relative to that of the dimer” value in [1] amounted to 8 x. Further, the “Fold (GM peptide / GM tetrameric peptide)” value in [2] (Gram-negative clinical isolates), in data set [6] (Gram-positive clinical isolates) and in [11] (Gram-negative ATCC strains) was 1.0 each time. Also, the Gm, geometric mean of MIC50 values in [2] (Gram-negative clinical isolates (K. pneumoniae, P. aeruginosa) with a printed MIC50) worked out at 9.7 µM; in data set [6] (Gram-positive clinical isolates (E. faecium, S. aureus) with a printed MIC50), 7.0; in [11] (Gram-negative ATCC strains 13883, 700603, 10145, 27853, in µM) it was 13.1. Further, the MIC50 is >100 µM in [4] (setting [12]); >100 µM in data set [5] (setting [14]); 21.7 µM in [7] (setting [16]); 3.1 µM in data set [8] (setting [19]); 18.1 µM in data set [9] (setting [20]); >200.0 µM in [10] (setting [22]). The MBC in data set [4] (setting [13]) is 12.5 µM; in data set [5] (setting [15]), >100 µM; in [7] (setting [17]) it was 50.0 µM; in data set [8] (setting [18]) it was 25.0 µM; in data set [9] (setting [21]), 50.0 µM; in [10] (setting [23]) it was >200.0 µM. Also, the “Bacterial viability (lowest value observed)” value in data set [8] (6.2 μM, untreated control = 100%, Figure 2A) was found to be 48.9%; in [10] (12.5 μM, untreated control = 100%, Figure 2B), 62.4%.

Turning to “RRWQWR-NH2 [LfcinB (20–25), reference compound]”, in [1] (human red blood cells, 2% hematocrit in PBS, 2 h 37°C, OD492, peptide 6.25-100 μM, concentration of the maximum in the column beside, duplicate), the “Hmax, maximum hemolytic activity” value amounted to 7.1%. Besides, the “H50, concentration of peptide leading to 50% hemolysis” value in data set [1] (human red blood cells, 2 h 37°C, highest concentration tested 100 μM) was >100 µM. The “Peptide concentration corresponding to Hmax” value in data set [1] (human red blood cells, 2 h 37°C, used as MHC in the therapeutic index) is 25 µM and 25.0 µM. The MIC50 in data set [3] (K. pneumoniae isolate 49,644, broth microdilution, 24 h 37°C, OD620, 50% growth inhibition) is >100 µM; in [4] (setting [12]) it was >100 µM; in data set [5] (setting [14]), >100 µM; in data set [7] (setting [16]) it was >200.0 µM; in data set [8] (setting [19]), >200.0 µM; in data set [9] (setting [20]), >200.0 µM. Also, in [10] (setting [22]), the MIC50 came to 198.0 µM. Further, the MBC in data set [3] (K. pneumoniae isolate 49,644, plated on agar 18 h 37°C, 99.9% reduction) was >100 µM; in [4] (setting [13]) it was >100 µM; in data set [5] (setting [15]) it was >100 µM; in data set [7] (setting [17]), >200.0 µM; in data set [8] (setting [18]) it was >200.0 µM; in [9] (setting [21]), >200.0 µM. Moreover, the MBC in data set [10] (setting [23]) is >200.0 µM.
